Data taken from patent US20090089889A9, “Neuromedin u receptor subtype 1 deficient transgenic mice and uses thereof” (priority 2006, published 2009).
“Also recorded” adds a separate entry of the source. Where no end group is shown, it is not given here.

Legend:
Type in all cases: in vivo, mouse
[1] = tested on: lean and DIO C57BL/6 mice; assay: Ad libitum food intake of lean and DIO mice after rat NMU peptide
Experimental: (§1) For acute nocturnal feeding studies, ad libitum fed male mice maintained on regular chow were weighed and dosed either intraperitoneally (ip) or icv ˜30 min prior to the onset of the dark phase of the light cycle and provided with a preweighed aliquot of chow which was then weighed two and 18 hours (overnight) after the onset of the dark phase. Mice were again weighed at the later time point. For chronic feeding studies, ad libitum fed male mice normally maintained on regular chow were switched to a palatable moderate fat diet at the initiation of treatment and food intake and body weight were measured daily.

[2] = tested on: Nmur2−/− mice; assay: Acute peripheral (i.p.) NMU administration in NMUR2 knockout mice; details: peripherally administered NMU
Experimental: (§2) Food intake (FIG. 1A) and body weight (FIG. 1B) were measured in C57BL/6 mice dosed intraperitoneally (i.p.) either with vehicle (saline) or with NMU approximately 30 minutes prior to onset of darkness. Measurements were taken about 18 hours later. * indicates p value of <0.05, n=6 per treatment group. In FIGS. 1C and 1D, food intake and body weight are measured in Nmur1 and Nmur2 mice dosed ip with either saline or 30 mg/kg (mkg) NMU about 30 minutes prior to the onset of the dark phase. Measurements were taken 18 hrs later. *, P<0.05 vs. saline, n=6 per treatment group. Nmur1 or Nmur2 mice were dosed i.p. with either vehicle (saline) or 30 mpk NMU ˜30 min. prior to the onset of the dark phase and food intake (C) and body weights (D) were measured 18 h (overnight) later. *, P<0.05 vs. corresponding vehicle; #, P<0.05 vs. Nmu1r+/+, NMU; $, P=0.052; n=10 per treatment group.
(§3) The Nmur1 mice were maintained on a 50% C57BL/6×50% 129S6/SvEv background and Nmur2 mice (licensed from Deltagen) on a 75% C57BL/6×25% 129/OlaHsd background. For comparison with wild-type, 10-12 week-old male C57BL/6 mice were purchased from Taconic Farms. Mice were individually housed in Tecniplast cages in a conventional SPF facility. […]

[3] = tested on: C57BL/6 mice; assay: Acute nocturnal feeding study, central (i.c.v.) NMU in wild-type mice; details: measured 2 h later
Experimental: (§4) FIG. 2A describes results from an experiment where C57BL/6 mice were dosed intracerebronventricularly (i.c.v) with either vehicle (aCSF) or NMU ˜30 min. prior to the onset of the dark phase and food intake was measured 2 h later. *, P<0.05 vs. vehicle; n=12-24 per group. In FIG. 2B, Nmur1 or Nmur2 mice were dosed i.c.v. with either vehicle (aCSF) or 3 μg NMU ˜30 min. prior to the onset of the dark phase and food intake was measured 2 h later. *, P<0.05 vs. corresponding vehicle; #, P<0.05 vs. Nmur2+/+, NMU; n=14 per treatment group.
(§5) Mice were anesthetized with an intramuscular (im) injection of ketamine (100 mg/kg) and domitor (0.75 mg/kg) and placed in a stereotactic device (Kopf Instruments). […]
as §1, with “Mice were again weighed at the later time point.” left out

[4] = tested on: DIO mice; assay: 13-day chronic subcutaneous infusion in DIO mice
Experimental: (§6) Immediately following surgery, mice were given an im injection of atapimazole. Five days following the initial surgery, mice were again anesthetized and placed in the stereotactic device. Micro-osmotic pumps were removed and replaced with mini-osmotic pumps designed to deliver 0.5 μl/h (Alza Co.) and filled with either aCSF or mouse NMU-23 (Mimotopes) or MTII (Bachem) dissolved in aCSF. The pH of all solutions was adjusted to ˜7 with NaOH. Immediately following surgery, mice were given an im injection of atapimazole. For chronic sc infusions studies, mice were anesthetized and then a micro-osmotic pump designed to deliver 0.5 μl/h and filled with either sterile H2O or mouse NMU-23 (Mimotopes) or MTII (Bachem) dissolved in sterile H2O was implanted subcutaneously in the intrascapular space. The pH of all solutions was adjusted to ˜7 with NaOH. Immediately following surgery, mice were given an im injection of atapimazole.
(§7) The Nmur1 mice were maintained on a 50% C57BL/6×50% 129S6/SvEv background and Nmur2 mice (licensed from Deltagen) on a 75% C57BL/6×25% 129/OlaHsd background. For comparison with wild-type, 10-12 week-old male C57BL/6 mice were purchased from Taconic Farms. Mice were individually housed in Tecniplast cages in a conventional SPF facility. Mice were maintained on either regular chow (Teklad 7012: 13.4% kcal from fat; Harlan Teklad), a moderate fat diet (D12266B: 32% kcal from fat; Research Diets, Inc.) or, to induce obesity (DIO), a high fat diet (D12492: 60% kcal from fat; Research Diets, Inc.) with ad libitum access to water in a 12-h light/12-h dark cycle, unless stated otherwise.

[5] = tested on: Nmur2−/− mice; assay: Acute central (i.c.v.) NMU administration in NMUR2 knockout mice; details: i.c.v. 3 μg NMU, 2 h
Experimental: as §4, §5
as §1, with “Mice were again weighed at the later time point.” left out

[6] = tested on: Nmur1−/− mice; assay: Acute NMU administration (peripheral, i.p.) in NMUR1 knockout mice
Experimental: as §2
Nmur1 knockout (Nmur1^−/−) mice were generated using standard homologous recombination techniques. Briefly, a mouse genomic DNA library was screened with a mouse Nmur1mur cDNA probe, which was generated by PCR. One positive clone was isolated. Two regions of the clone were subcloned into pKO Scrambler NTKV-1904 (Stratagene) and a targeting vector was generated. The targeting vector was linearized by NotI restriction enzyme digestion and transformed into AB2.1 embryonic stem (ES) cells by electroporation with a Bio-Rad Gene Pulser. Transfected cells were cultured with G418 and FIAU for positive and negative selections, respectively. Approximately 500 clones were selected, and 20 correctly targeted ES cell clones were identified by Southern blot analysis. Five correctly targeted ES clones were injected into C57BL/6 blastocysts and these were implanted into pseudopregnant female mice. Several chimeric progeny gave germ-line transmission of the mutant NMUR1 allele and one NMUR1^−/− was established. F3 hybrid mice were used in all experiments
as §7, §1

[7] = tested on: C57BL/6 mice; assay: 7-day chronic s.c. infusion via Alzet micro-osmotic pumps; details: C57BL/6 mice, 0.3, 1, 3 or 10 mpk NMU/day s.c. infusion for 7 days
From the text: FIG. 3 describes the results from treatment of C57BL/6 mice with either vehicle (H2O); 0.3, 1, 3 or 10 mpk NMU/day; or 10 mpk MTII/day for 7 days via Alzet micro-osmotic pumps implanted sc in the intrascapular space. 7-day cumulative effects on body weight (A), adiposity (B) and food intake (C). *, P<0.05 vs. Vehicle; n=4-10 per treatment group.
as §6
as §1, with “Mice were again weighed at the later time point.” left out
Whole body composition analysis of conscious live mice was conducted using a Quantitative Magnetic Resonance (QMR) method (EchoMRI™, Echo Medical Systems, Houston, Tex.) (Tinsley et al. (2004) Obesity Research 12:150). […]

[8] = tested on: diet-induced obese C57BL/6 mice; assay: Core body temperature after acute i.p. dosing of fasted diet-induced obese mice; details: overnight fasted DIO C57BL/6 mice, i.p. 0.3, 1, 3 or 10 mpk NMU, 6 h monitoring
Experimental: FIG. 5 presents the results of an experiment where overnight fasted diet-induced obese C57BL/6 mice were dosed i.p. with either vehicle (saline); 0.3, 1, 3 or 10 mpk NMU; or 5 mpk MTII. Core temperature is plotted as change from vehicle baseline. A, hourly change. B, 6-h cumulative change.
Body temperature changes were measured as well. Male diet-induced obese mice maintained on a high fat diet were implanted with Mini-Mitter transmitters (Mini Mitter, Bend, Oreg.) prior to the study. Temperature recordings were initiated one day prior to dosing. Mice were fasted overnight and then the following morning 3 h after the onset of the light phase mice were dosed ip. Core body temperature was monitored for 6 h following dosing.

[9] = tested on: Nmur1−/− mice; assay: Acute central (i.c.v.) NMU administration in NMUR1 knockout mice; details: centrally administered NMU
Experimental: as §4, §5
as §1, with “Mice were again weighed at the later time point.” left out

[10] = tested on: C57BL/6 mice; assay: Acute nocturnal feeding study, peripheral (i.p.) NMU in wild-type mice; details: i.p. (peripheral) ~30 min before dark phase, measured 18 h later
Experimental: as §2, §3
All resultant measurement values were reported as mean±S.E.M. and data was analyzed by the two-tailed unpaired Student's t test. […]

[11] = tested on: C57BL/6 mice; assay: 14-day chronic i.c.v. infusion via Alzet mini-osmotic pumps
Experimental: FIG. 4 depicts treatment of C57BL/6 mice with either vehicle (aCSF); 12, 36 or 120 μg NMU/day; or 4.8 μg MTII/day for 14 days via Alzet mini-osmotic pumps implanted subcutaneously in the intrascapular space and connected with a catheter to a permanent indwelling i.c.v cannula implanted in the dorsal third cerebroventricle. 14-day cumulative effects on body weight (A), adiposity (B) and food intake (C). *, P<0.05 vs. vehicle; n=5-8 per group.
Mice were anesthetized with an intramuscular (im) injection of ketamine (100 mg/kg) and domitor (0.75 mg/kg) and placed in a stereotactic device (Kopf Instruments). For acute i.c.v. studies, a 26-gauge single acute guide cannula (Plastics One) was implanted into the dorsal third cerebral ventricle (0.22 mm posterior, 0.3 mm lateral and 3.3 mm ventral to bregma) and secured to the skull with cyanoacrylate adhesive followed by dental cement. Following surgery, a 33-gauge dummy cannula (Plastics One) was inserted into each guide cannula and mice were given an im injection of atapimazole (5 mg/kg). All cannulated mice were given one week of postoperative recovery, during which time they were handled daily to minimize nonspecific stress. All substances were administered to conscious mice with a repeating dispenser (Hamilton) equipped with a 50-μl Hamilton syringe and 33-gauge needle designed to extend 0.1-0.2 mm beyond the tip of the guide cannula. Mouse NMU-23 (Phoenix Pharmaceuticals) was dissolved in artificial cerebrospinal fluid (aCSF; Harvard Apparatus) and adjusted the pH to ˜7 with NaOH. All substances were injected in a total volume of 1 μl. Mice were given at least a 48-h recovery period between treatments. All acute icv injection studies were of crossover design, a paradigm in which mice initially treated with vehicle are subsequently treated with the agent of interest dissolved in vehicle and vice versa. For chronic icv studies, a 28-gauge osmotic pump connector cannula (Plastics One) was implanted into the dorsal third cerebral ventricle and secured to the skull. Then a micro-osmotic pump designed to deliver 0.5 μl/h (Alza Co.) and filled with aCSF was implanted subcutaneously in the intrascapular space and connected with vinyl tubing to the osmotic pump connector cannula.
as §6
as §1, with “daily. […]” for “daily.”

[12] = Nmur1−/− transgenic mice, mouse NMU-23 peptide administration, route not stated
[13] = C57BL/6 mice, 12, 36 or 120 μg NMU/day i.c.v. infusion for 14 days
[14] = C57BL/6 mice, 12, 36 or 120 μg NMU/day i.c.v. infusion for 14 days, listed as mouse NMU-23

Question: How did the “ad libitum food intake” value [1] turn out when “rNMU-23: a rat NMU peptide (YKVNEYQGPVAPSGGFFLFRPRN; ends and bridges not checked; UniProt P12760 144-166, looked up)” was run?
Answer: mimic those of the mouse isoform

Question: “NMU: Mouse NMU-23 neuromedin U peptide (Phoenix Pharmaceuticals, Mimotopes), agonist of NMUR1 and NMUR2 (FKAEYQSPSVGQSKGYFLFRPRN; ends and bridges not checked; UniProt Q9QXK8 144-166, looked up)” was tested. Which “anorectic actions (food intake)” value [2] did it give?
Answer: present

Question: And the food intake [3]?
Answer: reduces

Question: And the body weight [4]?
Answer: demonstrable effects

Question: What about the core temperature [4] of the same substance?
Answer: demonstrable effects

Question: And the food intake [4]?
Answer: demonstrable effects

Question: What about the “food intake (anorectic action)” value [5] of the same substance?
Answer: do not show the same reduction; also recorded: absent

Question: And the body weight ([6]; Nmur1 knockout mice, peripheral (i.p.) 30 mpk NMU, 18 h)?
Answer: not seen

Question: And the “food intake (anorectic action)” value ([6]; Nmur1 knockout mice, peripheral (i.p.) 30 mpk NMU, 18 h, 30 mg/kg)?
Answer: not seen; also recorded: absent

Question: What about the body temperature [6, 12] of the same substance?
Answer: largely unaffected

Question: And the body weight [6, 12]?
Answer: largely unaffected

Question: And the food intake [6, 12]?
Answer: largely unaffected

Question: And the “adiposity, 7-day cumulative” value [7]?
Answer: dose-dependent effects; also recorded: reduces

Question: And the “body weight, 7-day cumulative” value [7]?
Answer: dose-dependent effects; also recorded: reduces

Question: What about the “food intake, 7-day cumulative” value [7] of the same substance?
Answer: dose-dependent effects; also recorded: reduces

Question: What about the “core body temperature (change from vehicle baseline)” value [8] of the same substance?
Answer: dose-dependent effect; also recorded: dose-dependently increases

Question: And the “anorectic actions (food intake)” value [9]?
Answer: present

Question: And the body weight [10]?
Answer: dose-dependent reduction

Question: And the food intake [10]?
Answer: dose-dependent reduction; also recorded: reduces

Question: What about the body composition ([11]; 14-day chronic i.c.v. infusion) of the same substance?
Answer: Effects are also seen

Question: What about the “adiposity, 14-day cumulative” value [11, 13] of the same substance?
Answer: dose-dependent cumulative effects; also recorded: reduces

Question: What about the “body weight, 14-day cumulative” value [11, 13] of the same substance?
Answer: dose-dependent cumulative effects; also recorded: reduces

Question: And the “food intake, 14-day cumulative” value [11, 13]?
Answer: dose-dependent cumulative effects; also recorded: reduces

Question: And the “body weight, 14-day cumulative” value [11, 14]?
Answer: Effects are also seen

Question: What about the “food intake, 14-day cumulative” value [11, 14] of the same substance?
Answer: Effects are also seen
